Experimental data taken from patent US20200325505A1, “FILAMENTOUS FUNGI CAPABLE OF PRODUCING VERY LONG CHAIN FATTY ACIDS” (UT-Battelle, LLC, priority 2019, published 2020).
Residues, ends and D or L forms follow the SMILES beside them.

Legend:
[1] = tested on: Mortierella elongata AG77; experiment: Nitrogen source utilisation in Biolog 96-well plates, formazan formation after tetrazolium addition; assay type: cell-based; conditions: for Metabolized: Metabolized = more formazan formation than a control containing no nitrogen source, observed visually at 2 h, 24 h, 148 h; for Nitrogen sources that Mortierella elongata AG77 can metabolize: text summary of Table 4
Method: Two 300 mL volumes of growth medium comprising 1 g/L KH2PO4, 1 g/L MgSO4 7H2O, 0.1 g/L CaCl2, 0.02 g/L FeNaEDTA, 0.1 g/L NaCl, and either 1 g/L NH4NO3 or 20 g/L sucrose were prepared. […] Aliquots of 200 μL of carbon-free medium or nitrogen-free medium were pipetted into each well of a set of 96-well plates previously prepared with lyophilized putative carbon or nitrogen sources (Biolog Inc., Hayward, Calif.). Inocula were prepared by perforating a culture of Mortierella elongata AG77 grown on 20 g/L potato dextrose agar with a 3 mm diameter cork borer and separating the surface mycelial mat from the solid growth medium using tweezers. Each well was inoculated with one inoculum. Cultures were incubated at 21° C. for 24 hours to allow metabolic changes to stabilize, and then 100 μL of 3 g/L tetrazolium chloride in water was added to each well.
Conclusions were based on rate and intensity of formazan formation using the 3-(4,5-dimethylthiazol-2-yl)-2,5-diphenyltetrazolium bromide ([…]) assay. “Metabolized” indicates more formazan formation than a control containing no nitrogen source, and “Toxic” indicates less formazan formation than a control containing no nitrogen source, “Metabolized” and “Toxic” assignments are mutually exclusive. In this example, a compound may be “Metabolized” or “Toxic,” but not both.

[2] = tested on: Mortierella elongata AG77; experiment: Carbon source utilisation in Biolog 96-well plates, formazan formation after tetrazolium addition; assay type: cell-based; conditions: for Metabolized: Metabolized = more formazan formation than a control containing no carbon source, observed visually at 2 h, 24 h, 148 h; for Carbon sources that Mortierella elongata AG77 can metabolize: summary of Table 3
Procedure, shortened: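 Carbon- or nitrogen-free mineral medium (pH 5.5) was dispensed onto lyophilised carbon or nitrogen sources and inoculated with 3 mm mycelial plugs of M. elongata grown on PDA. After 24 h at 21 °C, tetrazolium chloride was added and formazan was scored visually at 2, 24 and 148 h against a no-carbon-source control.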

[3] = compound as nitrogen source, Toxic = less formazan formation than a control containing no nitrogen source
[4] = compound as carbon source, Toxic = less formazan formation than a control containing no carbon source

Compound | Metabolized ([1]; compound as nitrogen source) | Toxic [1, 3] | Toxic [1] | further results
N=C(N)NCCCCN [Agmatine] | no | no | – | –
NC(=O)NC1NC(=O)NC1=O (centres unmarked) [Allantoin] | no | – | no | –
O=c1cc[nH]c(=O)[nH]1 [Uracil] | no | – | no | –
NCCCC[C@@H](N)C(=O)O [D-Lysine] | no | – | no | –
NCC(=O)N[C@@H](CC(N)=O)C(=O)O [Gly-Asn] (H-Gly-Asn-OH) | no | no | – | –
NC(=O)NC(N)=O [Biuret] | no | no | – | –
CCC(N)C(=O)O (racemic) [D,L-α-Amino-N-Butyric Acid] | no | – | no | –
CC(C)[C@@H](N)C(=O)O [D-Valine] | no | – | no | –
N[C@@H]1C(O)O[C@H](CO)[C@@H](O)[C@@H]1O (stereo partly drawn) [D-Mannosamine] | no | – | no | –
Nc1ccn([C@@H]2O[C@H](CO)[C@@H](O)[C@H]2O)c(=O)n1 [Cytidine] | yes | – | no | Nitrogen sources that Mortierella elongata AG77 can metabolize [1]: can metabolize
CC(O)C(N)=O (racemic) [D,L-Lactamide] | no | no | – | –
CCCCCN [N-Amylamine] | no | – | no | –
NCCCCCC(=O)O [ε-Amino-N-Caproic Acid] | no | no | – | –
CCCCN [N-Butylamine] | no | no | – | –
Nc1nc2nc[nH]c2c(=O)[nH]1 [Guanine] | no | – | yes | –
O=C1NC(=O)C(=O)C(=O)N1 [Alloxan] | no | no | – | –
O=c1[nH]c(=O)c2ncn([C@@H]3O[C@H](CO)[C@@H](O)[C@H]3O)c2[nH]1 [Xanthosine] | no | – | no | –
CCC[C@H](N)C(=O)O [α-Amino-N-Valeric Acid] | no | no | – | –
N[C@H]1C(O)O[C@H](CO)[C@H](O)[C@@H]1O (stereo partly drawn) [D-Galactosamine] | no | – | no | –
NCCc1c[nH]cn1 [Histamine] | no | – | no | –
CN [Methylamine] | no | no | – | –
C[C@H](N)C(=O)N[C@@H](CC(=O)O)C(=O)O [Ala-Asp] (H-Ala-Asp-OH) | yes | no | – | Nitrogen sources that Mortierella elongata AG77 can metabolize [1]: can metabolize
Nc1nc2c(ncn2[C@@H]2O[C@H](CO)[C@@H](O)[C@H]2O)c(=O)[nH]1 [Guanosine] | no | no | – | –
COC(=O)[C@@H](C)O [D-Lactic Acid Methyl Ester] | – | – | – | Metabolized ([2]; compound as carbon source): yes; Toxic [2, 4]: no; Carbon sources that Mortierella elongata AG77 can metabolize [2]: can metabolize
OC[C@H]1O[C@H](O[C@H]2[C@H](O)[C@@H](O)[C@H](O)O[C@@H]2CO)[C@H](O)[C@@H](O)[C@@H]1O [Maltose] | – | – | – | Metabolized ([2]; compound as carbon source): yes; Carbon sources that Mortierella elongata AG77 can metabolize [2]: can metabolize
O=C(CO)[C@H](O)[C@H](O)[C@H](O)CO [D-Psicose] | – | – | – | Toxic [2]: no; Metabolized ([2]; compound as carbon source): yes; Carbon sources that Mortierella elongata AG77 can metabolize [2]: can metabolize
COC(=O)CCC(=O)O [Mono Methyl Succinate] | – | – | – | Toxic [2]: no
CO[C@@H]1O[C@H](CO)[C@@H](O)[C@H](O)[C@H]1O [β-Methyl-D-Galactoside] | – | – | – | Metabolized ([2]; compound as carbon source): yes; Toxic [2, 4]: no; Carbon sources that Mortierella elongata AG77 can metabolize [2]: can metabolize
OC[C@H]1O[C@@](CO)(O[C@H]2O[C@H](CO)[C@@H](O)[C@H](O)[C@H]2O)[C@@H](O[C@H]2O[C@H](CO)[C@@H](O)[C@H](O)[C@H]2O)[C@@H]1O [D-Melezitose] | – | – | – | Metabolized ([2]; compound as carbon source): no; Toxic [2, 4]: no
Tween 20 | – | – | – | Metabolized ([2]; compound as carbon source): yes; Toxic [2, 4]: no; Carbon sources that Mortierella elongata AG77 can metabolize [2]: can metabolize
